For the assay, the system named is C. parvum strain UGA1. The assay is described as follows: C. parvum growth inhibition assay (Nluc luminescence in HCT-8 cells). In kind it is cell-based, Cryptosporidium parvum. The following applies: Cryptosporidium parvum; for EC50: HCT-8, 48 h, C. parvum growth inhibition in HCT-8 cells, 48 hours, 6 concentrations 10-0.04 μM; for inhibition at 1 µM / inhibition at 10 µM: HCT-8; for inhibition at 1 µM: read-out: % inh @ 1 uM C. parvum; for inhibition at 10 µM: read-out: % inh @ 10 uM C. parvum.

The mark [1] stands for this setting: single point inhibition @ 10 uM.
Where [2] appears, read: single point inhibition at 1 uM.
[3] abbreviates: single point inhibition at 10 uM.

SMILES strings stand for the structures. Read-outs that look alike come from different tables or passages of the source.

A word on the EC50: it is the concentration giving half of the maximal effect. High values mean lower potency in that assay, low ones higher potency in that assay.

`Cc1cc(-c2cc3cnc(NC(=O)C4CC4)cc3n2C)ccn1` [Example 83, N-(1-methyl-2-(2-methylpyridin-4-yl)-1H-pyrrolo[3,2-c]pyridin-6-yl)cyclopropanecarboxamide] returned an EC50 of more than 1 µM. Also, the inhibition at 1 µM (single point inhibition @ 1 uM) lay in the range of 0 to 33%. The inhibition at 10 µM under setting [1] was in the range of 0 to 33%.

For `Cn1c(-c2ccncc2)cc2cnc(Nc3cnn(C4CCOCC4)c3)cc21` [Example 138, 1-methyl-2-(pyridin-4-yl)-N-(1-(tetrahydro-2H-pyran-4-yl)-1H-pyrazol-4-yl)-1H-pyrrolo[3,2-c]pyridin-6-amine], the inhibition at 1 µM (single point inhibition @ 1 uM) lay within 0 to 33%. Besides, the inhibition at 10 µM under setting [1] fell in the range of 67 to 100%.

As to `CCOc1nccc(-c2cc3cnc(NC(=O)c4cnn([C@H]5C[C@H](O)C5)c4)cc3[nH]2)n1` [Example 270, N-(2-(2-ethoxypyrimidin-4-yl)-1H-pyrrolo[3,2-c]pyridin-6-yl)-1-((1r,3r)-3-hydroxycyclobutyl)-1H-pyrazole-4-carboxamide], under setting [2], the inhibition at 1 µM is 0 to 33%. Also, the inhibition at 10 µM under setting [3] fell in the range of 0 to 33%.

Take `Cc1cc(-c2cc3cnc(NC(=O)C4CC4)cc3[nH]2)ccc1F` [Example 340, N-(2-(4-fluoro-3-methylphenyl)-1H-pyrrolo[3,2-c]pyridin-6-yl)cyclopropanecarboxamide]: the inhibition at 1 µM under setting [2] was 0 to 33%. For the same compound, the inhibition at 10 µM under setting [3] fell in the range of 0 to 33%.

On to `Cn1cc(C(=O)Nc2cc3[nH]c(-c4nc[nH]n4)cc3cn2)cn1` [Example 264, N-(2-(1H-1,2,4-triazol-3-yl)-1H-pyrrolo[3,2-c]pyridin-6-yl)-1-methyl-1H-pyrazole-4-carboxamide], for which the inhibition at 1 µM under setting [2] is 0 to 33%. Further, the inhibition at 10 µM under setting [3] fell in the range of 0 to 33%.

As for `COc1nccc(-c2cc3cnc(NC(=O)[C@H]4C[C@@H](O)C4)cc3n2C)n1` [Example 163, (1s,3s)-3-hydroxy-N-(2-(2-methoxypyrimidin-4-yl)-1-methyl-1H-pyrrolo[3,2-c]pyridin-6-yl)cyclobutanecarboxamide], the inhibition at 1 µM (single point inhibition @ 1 uM) fell in the range of 0 to 33%. Further, under setting [1], the inhibition at 10 µM lay in the range of 67 to 100%.

With `COc1cc(Nc2cc3[nH]c(C#N)cc3cn2)cc(C2CCOCC2)c1` [Example 148, 6-(3-methoxy-5-(tetrahydro-2H-pyran-4-yl)phenylamino)-1H-pyrrolo[3,2-c]pyridine-2-carbonitrile], the inhibition at 1 µM (single point inhibition @ 1 uM) lay within 0 to 33%. Also, the inhibition at 10 µM under setting [1] is 67 to 100%.

`Cc1cccc(-c2cc3cnc(NC(=O)C4CC4)cc3n2C)c1` [Example 346, N-(1-methyl-2-m-tolyl-1H-pyrrolo[3,2-c]pyridin-6-yl)cyclopropanecarboxamide] had an EC50 of more than 1 µM.

For `Cc1ccccc1-c1cc2cnc(NC3CCOCC3)cc2[nH]1` [Example 357, N-(tetrahydro-2H-pyran-4-yl)-2-o-tolyl-1H-pyrrolo[3,2-c]pyridin-6-amine], the EC50 was more than 1 µM.

Turning to `Cn1cc(-c2cc3cnc(NC4CCOCC4)cc3[nH]2)cn1` [Example 354, 2-(1-methyl-1H-pyrazol-4-yl)-N-(tetrahydro-2H-pyran-4-yl)-1H-pyrrolo[3,2-c]pyridin-6-amine], the EC50 is more than 1 µM.

For the compound `Cn1cc(C(=O)Nc2cc3[nH]c(C(F)(F)F)cc3cn2)cn1` [Example 341, 1-methyl-N-(2-(tirfluoromethyl)-1H-pyrrolo[3,2-c]pyridin-6-yl)-1H-pyrazole-4-carboxamide], the inhibition at 1 µM under setting [2] lay within 0 to 33%. Under setting [3], the inhibition at 10 µM fell in the range of 0 to 33%.

Turning to `COc1nccc(-c2cc3cnc(NC(=O)c4cnn(CC5CCOC5)c4C)cc3[nH]2)n1` (stereo in doubt) [Example 179, (S)-N-(2-(2-methoxypyrimidin-4-yl)-1H-pyrrolo[3,2-c]pyridin-6-yl)-5-methyl-1-((tetrahydrofuran-3-yl)methyl)-1H-pyrazole-4-carboxamide], the inhibition at 1 µM (single point inhibition @ 1 uM) lay in the range of 0 to 33%. The inhibition at 10 µM under setting [1] lay in the range of 67 to 100%.

As to `Cc1nc(-c2cc3cnc(NC(=O)C4CC4)cc3[nH]2)co1` [Example 335, N-(2-(2-methyloxazol-4-yl)-1H-pyrrolo[3,2-c]pyridin-6-yl)cyclopropanecarboxamide], the inhibition at 1 µM under setting [2] lay in the range of 0 to 33%. Moreover, the inhibition at 10 µM under setting [3] lay in the range of 0 to 33%.

Regarding `COc1ccc(Nc2cc3c(cn2)cc(-c2cnn(C)c2)n3C)c(C)c1` [Example 258, N-(4-methoxy-2-methylphenyl)-1-methyl-2-(1-methyl-1H-pyrazol-4-yl)-1H-pyrrolo[3,2-c]pyridin-6-amine], the inhibition at 1 µM under setting [2] is 0 to 33%. In addition, the inhibition at 10 µM under setting [3] lay in the range of 0 to 33%.

For `COc1nccc(-c2cc3cnc(NC(=O)[C@H]4C[C@H](O)C4)cc3[nH]2)n1` [Example 63, (1r,3r)-3-hydroxy-N-(2-(2-methoxypyrimidin-4-yl)-1H-pyrrolo[3,2-c]pyridin-6-yl)cyclobutanecarboxamide], the EC50 was more than 1 µM. The inhibition at 1 µM (single point inhibition @ 1 uM) was 0 to 33%. The inhibition at 10 µM under setting [1] lay within 67 to 100%.

Regarding `COc1nccc(-c2cc3cnc(NC(=O)c4cnn(C5CCCC5)c4)cc3[nH]2)n1` [Example 183, 1-cyclopentyl-N-(2-(2-methoxypyrimidin-4-yl)-1H-pyrrolo[3,2-c]pyridin-6-yl)-1H-pyrazole-4-carboxamide], for the setting “single point inhibition @ 1 uM”, the inhibition at 1 µM was in the range of 0 to 33%. For the same compound, the inhibition at 10 µM under setting [1] lay within 67 to 100%.

Compound `CCc1cc2cnc(NC3CCOCC3)cc2[nH]1` [Example 361, 2-ethyl-N-(tetrahydro-2H-pyran-4-yl)-1H-pyrrolo[3,2-c]pyridin-6-amine] registered an EC50 of more than 1 µM.

`Cc1cc(-c2cc3cnc(NC4CCOC4)cc3[nH]2)ccn1` (stereo in doubt) [Example 52, (S)-2-(2-methylpyridin-4-yl)-N-(tetrahydrofuran-3-yl)-1H-pyrrolo[3,2-c]pyridin-6-amine] had a concentration for a half-maximal effect (EC50) of more than 1 µM.

For the compound `CCc1cc(-c2cc3cnc(NC4CCOCC4)cc3n2C)ncn1` [Example 389, 2-(6-ethylpyrimidin-4-yl)-1-methyl-N-(tetrahydro-2H-pyran-4-yl)-1H-pyrrolo[3,2-c]pyridin-6-amine], the EC50 is more than 1 µM.

`FC(F)(F)CNc1nccc(-c2cc3cnc(NC4CCOC4)cc3[nH]2)n1` (stereo in doubt) [Example 366, (R)-N-(tetrahydrofuran-3-yl)-2-(2-(2,2,2-trifluoroethylamino)pyrimidin-4-yl)-1H-pyrrolo[3,2-c]pyridin-6-amine] showed a concentration for a half-maximal effect (EC50) of less than 0.5 µM.

Take `Cc1cc(-c2cc3cnc(NC(=O)NC4CC4)cc3[nH]2)ccn1` [Example 209, 1-cyclopropyl-3-(2-(2-methylpyridin-4-yl)-1H-pyrrolo[3,2-c]pyridin-6-yl)urea]: under setting [2], the inhibition at 1 µM lay within 0 to 33%. Moreover, the inhibition at 10 µM under setting [3] was 67 to 100%.

As to `Cn1cc(C(=O)Nc2cc3c(cn2)cc(-c2ccnc(NCCC(F)(F)F)n2)n3C)cn1` [Example 133, 1-methyl-N-(1-methyl-2-(2-(3,3,3-trifluoropropylamino)pyrimidin-4-yl)-1H-pyrrolo[3,2-c]pyridin-6-yl)-1H-pyrazole-4-carboxamide], for the setting “single point inhibition @ 1 uM”, the inhibition at 1 µM was 0 to 33%. The inhibition at 10 µM under setting [1] was 67 to 100%.

In the case of `Cc1cc(-c2cc3cnc(NC4COC4)cc3[nH]2)ccn1` [Example 113, 2-(2-methylpyridin-4-yl)-N-(oxetan-3-yl)-1H-pyrrolo[3,2-c]pyridin-6-amine], the EC50 was more than 1 µM.

`Cn1cc(-c2cc3cnc(NC(=O)C4CC4)cc3n2C)cn1` [Example 102, N-(1-methyl-2-(1-methyl-1H-pyrazol-4-yl)-1H-pyrrolo[3,2-c]pyridin-6-yl)cyclopropanecarboxamide] came in with an EC50 of more than 1 µM.

For the compound `COc1nc(C)cc(-c2cc3cnc(NC(=O)c4cnn(C)c4)cc3[nH]2)n1` [Example 315, N-(2-(2-methoxy-6-methylpyrimidin-4-yl)-1H-pyrrolo[3,2-c]pyridin-6-yl)-1-methyl-1H-pyrazole-4-carboxamide], under setting [2], the inhibition at 1 µM was in the range of 0 to 33%. The inhibition at 10 µM under setting [3] is 0 to 33%.

As for `COc1nccc(-c2cc3cnc(NC(=O)[C@H]4C[C@@H](O)C4)cc3[nH]2)n1` [Example 167, (1s,3s)-3-hydroxy-N-(2-(2-methoxypyrimidin-4-yl)-1H-pyrrolo[3,2-c]pyridin-6-yl)cyclobutanecarboxamide], the inhibition at 1 µM (single point inhibition @ 1 uM) fell in the range of 33 to 66%. Under setting [1], the inhibition at 10 µM lay within 67 to 100%.

For `CCOc1nccc(-c2cc3cnc(NC(=O)[C@@H]4C[C@H]4C)cc3[nH]2)n1` (stereo in doubt) [Example 153, (1R,2R)-N-(2-(2-ethoxypyrimidin-4-yl)-1H-pyrrolo[3,2-c]pyridin-6-yl)-2-methylcyclopropanecarboxamide], the inhibition at 1 µM (single point inhibition @ 1 uM) is 0 to 33%. Further, the inhibition at 10 µM under setting [1] was in the range of 67 to 100%.

For the compound `Cn1c(-c2ccnc(NCC(F)(F)F)n2)cc2cnc(NC(=O)c3cnn(C4CCOC4)c3)cc21` (stereo in doubt) [Example 142, (R)-N-(1-methyl-2-(2-(2,2,2-trifluoroethylamino)pyrimidin-4-yl)-1H-pyrrolo[3,2-c]pyridin-6-yl)-1-(tetrahydrofuran-3-yl)-1H-pyrazole-4-carboxamide], the inhibition at 1 µM (single point inhibition @ 1 uM) lay within 67 to 100%. The inhibition at 10 µM under setting [1] was 67 to 100%.

In the case of `Cn1cc(C(=O)Nc2cc3[nH]c(C#N)cc3cn2)cn1` [Example 280, N-(2-cyano-1H-pyrrolo[3,2-c]pyridin-6-yl)-1-methyl-1H-pyrazole-4-carboxamide], the inhibition at 1 µM under setting [2] is 0 to 33%. The inhibition at 10 µM under setting [3] was in the range of 0 to 33%.

Consider `c1nc(NC2CCOCC2)cc2[nH]c(C3CCCCC3)cc12` [Example 26, 2-Cyclohexyl-N-(tetrahydro-2H-pyran-4-yl)-1H-pyrrolo[3,2-c]pyridin-6-amine], for which the EC50 is more than 1 µM.

In the case of `COc1cc(-c2cc3cnc(NC(=O)c4cnn(C)c4)cc3[nH]2)ccn1` [Example 286, N-(2-(2-methoxypyridin-4-yl)-1H-pyrrolo[3,2-c]pyridin-6-yl)-1-methyl-1H-pyrazole-4-carboxamide], the inhibition at 1 µM under setting [2] lay in the range of 0 to 33%. Under setting [3], the inhibition at 10 µM is 0 to 33%.
